Data from patent US11548899B2, “Fused 1,4-oxazepines and related analogs as BET bromodomain inhibitors” (THE REGENTS OF THE UNIVERSITY OF MICHIGAN, priority 2016, dated 2023).
Values joined by “and” are separate entries in the source; they are usually repeats but may differ in a detail not shown here. Equal values may be shown once.

How the values were obtained:
recombinant BRD4 BD2 = target: T1, recombinant BRD4 BD2 (Homo sapiens, UniProt O60885); assay: Competitive fluorescence-polarization (FP) binding assay, BRD4 BD2; settings: protein 6 nM, probe 1.5 nM
T1 construct: recombinant BRD4 BD1 and BRD4 BD2 proteins
Protocol: Fluorescence Polarization (FP) competitive binding studies were carried out using a FAM labeled fluorescent probe, see Cpd. […] Equilibrium dissociation constants (Kd) values of the fluorescent probe to BRD4 BD1 and BD2 proteins were determined from protein saturation experiments by monitoring the total fluorescence polarization of mixtures composed with the fluorescent probe at a fixed concentration and proteins with increasing concentrations up to full saturation. Serial dilutions of testing proteins were mixed with the fluorescent probe to a final volume of 200 μl in the assay buffer (100 mM phosphate buffer, pH=6.5, 0.01% Triton X-100 (Sigma, 282103) being added right before assays). Final fluorescent probe concentration was 1.5 nM for both proteins. Plates were incubated at room temperature for 30 minutes with gentle shaking to assure equilibrium. FP values in millipolarization units (mP) were measured using the Infinite M-1000 plate reader (Tecan U.S., Research Triangle Park, N.C.) in Microfluor 1 96-well, black, round-bottom plates (Thermo Scientific, Waltham, Mass.) at an excitation wavelength of 485 nm and an emission wavelength of 530 nm.
The IC50 and Ki values of compounds were determined in a competitive binding experiment. […] Mixtures of 10 μl of the tested compounds in assay buffer with 40% Ethylene Glycol and 190 μl of preincubated protein/probe complex solution in the assay buffer (100 mM potassium phosphate, pH 6.5, 0.01% Triton X-100) were added into assay plates which were incubated at room temperature for 30 minutes with gentle shaking. Final concentrations of proteins were 10 and 6 nM in assays for BRD4 BD1 and BD2, respectively. Final probe concentration is 1.5 nM in both assays. […] FP values were measured as described above. IC50 values were determined by nonlinear regression fitting of the competition curves.

recombinant BRD4 BD1 = target: T2, recombinant BRD4 BD1 (Homo sapiens, UniProt O60885); assay: Competitive fluorescence-polarization (FP) binding assay, BRD4 BD1; settings: FP competitive binding; protein 10 nM, probe 1.5 nM; read-out: IC50 (nM) BRD4 BD1
T2 construct: recombinant BRD4 BD1 and BRD4 BD2 proteins

Row | IC50 (recombinant BRD4 BD2) | IC50 (recombinant BRD4 BD1) | Structure (SMILES)
1 | 1460 nM | 14500 nM | Cc1nnc2n1-c1cccc(Nc3ccccc3)c1COC2 [Cpd. No. 37, 1-methyl-N-phenyl-4,6-dihydrobenzo[e][1,2,4]triazolo[3,4-c][1,4]oxazepin-7-amine]
2 | 367 nM | 1420 nM and 1260 nM | Cc1nnc2n1-c1cccc(Cc3ccccc3)c1COC2 [Cpd. No. 38, 7-benzyl-1-methyl-4,6-dihydrobenzo[e][1,2,4]triazolo[3,4-c][1,4]oxazepine]
3 | 1060 nM | 5450 nM | Cc1nnc2n1-c1cccc(Sc3ccccc3)c1COC2 [Cpd. No. 39, 1-methyl-7-(phenylthio)-4,6-dihydrobenzo[e][1,2,4]triazolo[3,4-c][1,4]oxazepine]
4 | 16600 nM | 18000 nM | Cc1nnc2n1-c1cccc([S+]([O-])c3ccccc3)c1COC2 (stereo not drawn) [Cpd. No. 41, 1-methyl-7-(phenylsulfinyl)-4,6-dihydrobenzo[e][1,2,4]triazolo[3,4-c][1,4]oxazepine]
5 | 328 nM | 3530 nM | C=C(c1ccccc1)c1cccc2c1COCc1nnc(C)n1-2 [Cpd. No. 43, 1-methyl-7-(1-phenylvinyl)-4,6-dihydrobenzo[e][1,2,4]triazolo[3,4-c][1,4]oxazepine]
6 | > 10000 nM | > 10000 nM | Cc1nnc2n1-c1cccc(C(=O)c3ccccc3)c1COC2 [Cpd. No. 52, (1-methyl-4,6-dihydrobenzo[e][1,2,4]triazolo[3,4-c][1,4]oxazepin-7-yl)(phenyl)methanone]

More lines, now with the values behind:

Row | Structure (SMILES) | IC50 (recombinant BRD4 BD2) | IC50 (recombinant BRD4 BD1)
7 | CCOC(=O)CN1Cc2c(sc(C)c2Cc2ccccc2)-n2c(C)nnc2[C@@H]1C [Cpd. No. 25, ethyl (S)-2-(3-benzyl-2,6,9-trimethyl-4H-thieno[3,2-f][1,2,4]triazolo[4,3-a][1,4]diazepin-5(6H)-yl)acetate] | 1100 nM | 942 nM
8 | Cc1sc2c(c1Cc1ccccc1)CN(S(=O)(=O)CCc1ccccc1)[C@@H](C)c1nnc(C)n1-2 [Cpd. No. 26, (S)-3-benzyl-2,6,9-trimethyl-5-(phenethylsulfonyl)-5,6-dihydro-4H-thieno[3,2-f][1,2,4]triazolo[4,3-a][1,4]diazepine] | 4460 nM | 9600 nM
9 | Cc1sc2c(c1Cc1ccccc1)CN(C1CCC1)[C@@H](C)c1nnc(C)n1-2 [Cpd. No. 29, (S)-3-benzyl-5-cyclobutyl-2,6,9-trimethyl-5,6-dihydro-4H-thieno[3,2-f][1,2,4]triazolo[4,3-a][1,4]diazepine] | 5860 nM | 1470 nM
10 | Cc1nnc2n1-c1cccc(Br)c1COC2 [Cpd. No. 36, 7-bromo-1-methyl-4,6-dihydrobenzo[e][1,2,4]triazolo[3,4-c][1,4]oxazepine] | > 10000 nM | > 10000 nM
11 | Cc1nnc2n1-c1cccc(S(=O)(=O)c3ccccc3)c1COC2 [Cpd. No. 42, 1-methyl-7-(phenylsulfonyl)-4,6-dihydrobenzo[e][1,2,4]triazolo[3,4-c][1,4]oxazepine] | 5020 nM | 10300 nM
12 | Cc1nnc2n1-c1cccc(C3=CCc4ccccc43)c1COC2 [Cpd. No. 44, 7-(1H-inden-3-yl)-1-methyl-4,6-dihydrobenzo[e][1,2,4]triazolo[3,4-c][1,4]oxazepine] | 238 nM | 4400 nM
13 | Cc1nnc2n1-c1cccc(Cc3ccc(OC(F)(F)F)cc3)c1COC2 [Cpd. No. 45, 1-methyl-7-(4-(trifluoromethoxy)benzyl)-4,6-dihydrobenzo[e][1,2,4]triazolo[3,4-c][1,4]oxazepine] | 1370 nM | 1550 nM
14 | Cc1nnc2n1-c1cccc(C3CCc4ccccc43)c1COC2 (stereo not drawn) [Cpd. No. 47, 7-(2,3-dihydro-1H-inden-1-yl)-1-methyl-4,6-dihydrobenzo[e][1,2,4]triazolo[3,4-c][1,4]oxazepine] | 303 nM | 1200 nM
15 | Cc1sc2c(c1C1=CCCc3ccccc31)COCc1nnc(C)n1-2 [Cpd. No. 51, 3-(3,4-dihydronaphthalen-1-yl)-2,9-dimethyl-4,6-dihydrothieno[2,3-e][1,2,4]triazolo[3,4-c][1,4]oxazepine] | 207 nM | 256 nM
